From patent US10717733B2, “Haloallylamine indole and azaindole derivative inhibitors of lysyl oxidases and uses thereof” (PHARMAXIS LTD., priority 2016, dated 2020)
pIC50: −log10 of the molar value. Structures can show the parent of a compound that is named as a salt.

Columns and labels:
Assay type in all cases: biochemical
Bovine LOX = Bovine LOX (Bos taurus (Bovine), UniProt P33072); assay: LOX inhibition, peroxidase-coupled Amplex Red amine oxidase assay; details: 30 min preincubation at 37° C., putrescine substrate
Bovine LOX, sequence (P33072 170-418): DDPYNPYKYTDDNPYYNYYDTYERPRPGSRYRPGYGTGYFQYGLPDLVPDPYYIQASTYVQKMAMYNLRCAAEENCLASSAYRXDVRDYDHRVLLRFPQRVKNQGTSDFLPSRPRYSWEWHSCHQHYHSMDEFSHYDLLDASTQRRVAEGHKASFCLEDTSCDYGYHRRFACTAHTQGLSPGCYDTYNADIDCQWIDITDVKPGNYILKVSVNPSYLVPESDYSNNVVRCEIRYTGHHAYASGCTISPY
Excerpt: (§1) Method to Determine the Ability of Compounds of the Invention to Inhibit LOX and LOXL1-4 from Different Sources
Lysyl oxidase (LOX) is an extracellular copper dependent enzyme which oxidizes peptidyl lysine and hydroxylysine residues in collagen and lysine residues in elastin to produce peptidyl alpha-aminoadipic-delta-semialdehydes. […] There are five LOX family members; these are LOX, LOXL1, LOXL2, LOXL3 and LOXL4. LOX and LOXL family members can be acquired as recombinant active proteins from commercial sources, or extracted from animal tissues like bovine aorta, tendons, pig skin; or prepared from cell cultures. The inhibitory effects of the compounds of the present invention were tested against the given LOX-LOXL preparation using a high-throughput coupled colorimetric method (Holt A. and Palcic M., A peroxidase-coupled continuous absorbance plate-reader assay for flavin monoamine oxidases, copper-containing amine oxidases and related enzymes. Nat. Protoc. 2006; 1: 2498-2505). The assay was developed using either 384 or 96 well format. Briefly, in a standard 384 well plate assay 25 μL of a dilution of any of the isoenzymes and orthologues in 1.2 M urea, 50 mM sodium borate buffer (pH 8.2) were added into each well in the presence of 1 μM mofegiline and 0.5 mM pargyline (to inhibit SSAO and MAO-B and MAO-A, respectively). […] of a reaction mixture containing twice the KM concentration of putrescine (Sigma Aldrich, e.g. 20 mM for LOX, or 10 mM for LOXL2 and LOXL3), 120 μM Amplex Red (Sigma Aldrich) and 1.5 U/mL horseradish peroxidase (Sigma Aldrich) prepared in 1.2 M urea, 50 mM sodium borate buffer (pH 8.2) were then added to the corresponding wells. The above volumes were doubled in the case of 96 wells plate. The fluorescence (RFU) was read every 2.5 min for 30 min at a range of temperatures from 37° to 45° C., excitation 565 nm and emission 590 (Optima; BMG labtech). The slope of the kinetics for each well was calculated using MARS data analysis software (BMG labtech) and this value was used to deduce the IC50 value (Dotmatics).

Human LOXL2 = Human LOXL2 (Homo sapiens (Human), UniProt Q9Y4K0); assay: LOXL2 inhibition, peroxidase-coupled Amplex Red amine oxidase assay; details: 30 min preincubation at 37° C., putrescine substrate
Human LOXL2, sequence (Q9Y4K0 26-774): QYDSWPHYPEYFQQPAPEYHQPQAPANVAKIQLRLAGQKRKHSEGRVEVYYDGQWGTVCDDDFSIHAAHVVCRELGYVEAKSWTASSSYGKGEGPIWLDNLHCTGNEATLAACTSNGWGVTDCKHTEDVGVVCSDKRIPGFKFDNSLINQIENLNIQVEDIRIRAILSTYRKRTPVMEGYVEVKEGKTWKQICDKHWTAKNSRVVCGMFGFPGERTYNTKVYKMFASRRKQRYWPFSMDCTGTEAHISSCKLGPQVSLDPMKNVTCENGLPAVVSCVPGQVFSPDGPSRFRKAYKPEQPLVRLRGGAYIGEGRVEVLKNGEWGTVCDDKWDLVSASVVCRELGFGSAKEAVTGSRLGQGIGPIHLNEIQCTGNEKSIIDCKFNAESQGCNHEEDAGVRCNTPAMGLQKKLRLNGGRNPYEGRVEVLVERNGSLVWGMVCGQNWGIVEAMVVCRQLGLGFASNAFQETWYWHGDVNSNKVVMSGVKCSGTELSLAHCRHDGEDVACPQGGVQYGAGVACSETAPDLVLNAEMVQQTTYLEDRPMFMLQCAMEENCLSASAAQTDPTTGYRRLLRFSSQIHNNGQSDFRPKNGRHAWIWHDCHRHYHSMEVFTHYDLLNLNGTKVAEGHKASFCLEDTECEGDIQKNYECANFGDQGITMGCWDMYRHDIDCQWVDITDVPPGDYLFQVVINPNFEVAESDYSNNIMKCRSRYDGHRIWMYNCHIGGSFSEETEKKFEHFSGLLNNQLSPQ
Excerpt: as §1
Lysyl oxidase (LOX) is an extracellular copper dependent enzyme which oxidizes peptidyl lysine and hydroxylysine residues in collagen and lysine residues in elastin to produce peptidyl alpha-aminoadipic-delta-semialdehydes. […] There are five LOX family members; these are LOX, LOXL1, LOXL2, LOXL3 and LOXL4. LOX and LOXL family members can be acquired as recombinant active proteins from commercial sources, or extracted from animal tissues like bovine aorta, tendons, pig skin; or prepared from cell cultures. The inhibitory effects of the compounds of the present invention were tested against the given LOX-LOXL preparation using a high-throughput coupled colorimetric method (Holt A. and Palcic M., A peroxidase-coupled continuous absorbance plate-reader assay for flavin monoamine oxidases, copper-containing amine oxidases and related enzymes. Nat. Protoc. 2006; 1: 2498-2505). The assay was developed using either 384 or 96 well format. Briefly, in a standard 384 well plate assay 25 μL of a dilution of any of the isoenzymes and orthologues in 1.2 M urea, 50 mM sodium borate buffer (pH 8.2) were added into each well in the presence of 1 μM mofegiline and 0.5 mM pargyline (to inhibit SSAO and MAO-B and MAO-A, respectively). Test compounds were dissolved in DMSO and tested in a Concentration Response Curve (CRC) with 11 data points, typically in the micromolar or nanomolar range after incubation with the enzyme for 30 min at 37° C. Twenty five L of a reaction mixture containing twice the KM concentration of putrescine (Sigma Aldrich, e.g. 20 mM for LOX, or 10 mM for LOXL2 and LOXL3), 120 μM Amplex Red (Sigma Aldrich) and 1.5 U/mL horseradish peroxidase (Sigma Aldrich) prepared in 1.2 M urea, 50 mM sodium borate buffer (pH 8.2) were then added to the corresponding wells. The above volumes were doubled in the case of 96 wells plate. The fluorescence (RFU) was read every 2.5 min for 30 min at a range of temperatures from 37° to 45° C., excitation 565 nm and emission 590 (Optima; BMG labtech). The slope of the kinetics for each well was calculated using MARS data analysis software (BMG labtech) and this value was used to deduce the IC50 value (Dotmatics).

[1] = molecular target: human recombinant SSAO/VAP-1 (Homo sapiens (Human), UniProt Q16853); assay: Inhibition of human recombinant SSAO/VAP-1 amine oxidase activity; details: 30 min preincubation at 37° C., 600 μM benzylamine
human recombinant SSAO/VAP-1, sequence (Q16853 34-763): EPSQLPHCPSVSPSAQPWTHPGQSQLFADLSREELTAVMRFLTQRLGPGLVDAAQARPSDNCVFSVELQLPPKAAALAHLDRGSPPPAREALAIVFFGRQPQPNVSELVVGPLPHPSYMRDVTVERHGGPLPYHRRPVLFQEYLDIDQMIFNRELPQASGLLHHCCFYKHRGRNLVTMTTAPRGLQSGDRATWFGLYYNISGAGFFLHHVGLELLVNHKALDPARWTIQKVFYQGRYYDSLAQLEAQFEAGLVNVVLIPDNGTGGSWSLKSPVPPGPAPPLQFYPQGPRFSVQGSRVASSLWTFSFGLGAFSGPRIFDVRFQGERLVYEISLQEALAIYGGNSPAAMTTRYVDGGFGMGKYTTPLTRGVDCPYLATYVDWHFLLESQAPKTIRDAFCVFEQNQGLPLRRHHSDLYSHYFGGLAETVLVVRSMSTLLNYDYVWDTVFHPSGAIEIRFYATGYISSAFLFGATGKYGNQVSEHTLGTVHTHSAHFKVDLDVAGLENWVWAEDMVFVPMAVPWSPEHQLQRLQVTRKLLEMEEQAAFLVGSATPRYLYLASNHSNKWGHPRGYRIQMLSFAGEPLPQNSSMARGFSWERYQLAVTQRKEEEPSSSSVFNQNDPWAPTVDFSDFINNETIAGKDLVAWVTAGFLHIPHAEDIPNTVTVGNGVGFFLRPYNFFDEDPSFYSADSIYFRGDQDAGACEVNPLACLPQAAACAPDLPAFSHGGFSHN
Description: Method to Determine the Ability of Compounds of Formula I to Inhibit Human Recombinant SSAO/VAP-1
Human recombinant SSAO/VAP-1 amine oxidase activity was determined using the coupled colorimetric method as described for monoamine oxidase, copper-containing amine oxidases and related enzymes (Holt A. and Palcic M., A peroxidase-coupled continuous absorbance plate-reader assay for flavin monoamine oxidases, copper-containing amine oxidases and related enzymes. Nat Protoc 2006; 1: 2498-2505). Briefly, a cloned cDNA template corresponding to residues 34-763 of human SSAO/VAP-1, and incorporating a mouse Ig kappa (κ) signal sequence, N-terminal flag epitope tag and tobacco etch virus (TEV) cleavage site, was assembled in a mammalian expression vector (pLO-CMV) by Geneart AG. This vector containing human SSAO/VAP-1 residues was transfected into CHO-K1 glycosylation mutant cell line, Lec 8. A clone stably expressing human SSAO/VAP-1 was isolated and cultured in large scale. Active human SSAO/VAP-1 was purified and recovered using immunoaffinity chromatography. This was used as the source for SSAO/VAP-1 activity. A high-throughput colorimetric assay was developed using either 96 or 384 well format. Briefly, in a standard 96 well plate assay 50 μL of purified human SSAO/VAP-1 (0.25 μg/mL) in 0.1 M sodium phosphate buffer (pH 7.4) was added into each well. Test compounds were dissolved in DMSO and tested in a Concentration Response Curve (CRC) with 4-11 data points, typically in the micromolar or nanomolar range after incubation with human SSAO/VAP-1 for 30 min at 37° C. After 30 min incubation, 50 μL of the reaction mixture containing 600 μM benzylamine (Sigma Aldrich), 120 μM Amplex Red (Sigma Aldrich) and 1.5 U/mL horseradish peroxidase (Sigma Aldrich) prepared in 0.1 M sodium phosphate buffer (pH 7.4) were added to the corresponding well. The fluorescence unit (RFU) was read every 2.5 min for 30 min at 37° C. excitation 565 nm and emission 590 (Optima; BMG labtech). The slope of the kinetics for each well was calculated using MARS data analysis software (BMG labtech) and this value was used to deduce the IC50 value (Dotmatics).

Recombinant human MAO-B = Recombinant human MAO-B (Homo sapiens (Human), UniProt P27338); assay: Inhibition of human recombinant MAO-B; details: benzylamine 100 μM
Recombinant human MAO-B, sequence (P27338 whole entry): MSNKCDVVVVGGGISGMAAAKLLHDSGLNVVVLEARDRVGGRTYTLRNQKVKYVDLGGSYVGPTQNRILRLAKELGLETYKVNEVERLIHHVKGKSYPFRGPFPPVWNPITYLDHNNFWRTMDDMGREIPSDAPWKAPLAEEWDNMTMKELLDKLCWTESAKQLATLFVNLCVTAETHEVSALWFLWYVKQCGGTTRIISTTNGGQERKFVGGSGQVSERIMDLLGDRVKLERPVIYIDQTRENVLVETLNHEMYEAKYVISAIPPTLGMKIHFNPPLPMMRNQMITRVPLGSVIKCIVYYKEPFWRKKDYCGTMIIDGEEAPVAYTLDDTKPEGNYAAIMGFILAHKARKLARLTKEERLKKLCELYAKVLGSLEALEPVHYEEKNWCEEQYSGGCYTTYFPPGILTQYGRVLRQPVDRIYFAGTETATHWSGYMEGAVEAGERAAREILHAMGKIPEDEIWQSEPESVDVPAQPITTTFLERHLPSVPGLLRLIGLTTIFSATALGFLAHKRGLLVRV
Description: Method to Determine the Ability of Compounds of Formula I to Inhibit Human Recombinant MAO-B
The specificity of the compounds of this invention was tested by determining their ability to inhibit MAO-B activities in vitro. Recombinant human MAO-B (0.06 mg/mL; Sigma Aldrich) was used as source of MAO-B enzyme activities. The assay was performed in a similar way as for human SSAO/VAP-1 (Example 66) except, the substrate benzylamine was used at 100 μM.

Row | SMILES | pIC50 (Bovine LOX) | pIC50 (Human LOXL2) | pIC50 [1] | pIC50 (Recombinant human MAO-B)
1 | NC/C=C(\F)Cn1cc(-c2ccc(F)cc2)c2ccccc21 [Compound 1, (Z)-3-fluoro-4-(3-(4-fluorophenyl)-1H-indol-1-yl)but-2-en-1-amine] | < 6.52 | > 6.52 | < 5.52 | < 5.52
2 | Cc1c(-c2cccc(S(=O)(=O)N(C)C)c2)c2ccccc2n1C/C(F)=C/CN [Compound 2, (Z)-3-(1-(4-amino-2-fluorobut-2-en-1-yl)-2-methyl-1H-indol-3-yl)-N,N-dimethylbenzenesulfonamide] | < 6.52 | > 6.52 | < 5.52 | < 5.52
3 | Cc1c(-c2ccc(S(=O)(=O)N(C)C)cc2)c2ccccc2n1C/C(F)=C/CN [Compound 3, (Z)-4-(1-(4-amino-2-fluorobut-2-en-1-yl)-2-methyl-1H-indol-3-yl)-N,N-dimethylbenzenesulfonamide] | < 6.52 | > 6.52 | < 5.52 | < 5.52
4 | Cc1c(-c2cccc(S(=O)(=O)N(C)C)c2)c2cccnc2n1C/C(F)=C/CN [Compound 4, (Z)-3-(1-(4-amino-2-fluorobut-2-en-1-yl)-2-methyl-1H-pyrrolo[2,3-b]pyridin-3-yl)-N,N-dimethylbenzenesulfonamide] | < 6.52 | > 6.52 | < 5.52 | < 5.52
5 | COC(=O)c1ccc2c(c1)c(-c1cccc(S(=O)(=O)N(C)C)c1)c(C)n2C/C(F)=C/CN [Compound 5, Hydrochloride] | < 6.52 | > 6.52 | < 5.52 | < 5.52
6 | Cc1c(-c2cccc(S(=O)(=O)N(C)C)c2)c2cc(C(=O)N(C)C)ccc2n1C/C(F)=C/CN [Compound 6, (Z)-1-(4-amino-2-fluorobut-2-en-1-yl)-3-(3-(N,N-dimethylsulfamoyl)phenyl)-N,N,2-trimethyl-1H-indole-5-carboxamide] | < 6.52 | > 6.52 | < 5.52 | < 5.52
7 | COC(=O)c1ccc2c(-c3cccc(S(=O)(=O)N(C)C)c3)c(C)n(C/C(F)=C/CN)c2c1 [Compound 7, (Z)-methyl 1-(4-amino-2-fluorobut-2-en-1-yl)-3-(3-(N,N-dimethylsulfamoyl)phenyl)-2-methyl-1H-indole-6-carboxylate] | < 6.52 | > 6.52 | < 5.52 | < 5.52
8 | Cc1c(-c2cccc(S(=O)(=O)N(C)C)c2)c2cc(C(=O)O)ccc2n1C/C(F)=C/CN [Compound 8, (Z)-1-(4-amino-2-fluorobut-2-en-1-yl)-3-(3-(N,N-dimethylsulfamoyl)phenyl)-2-methyl-1H-indole-5-carboxylic acid] | < 6.52 | > 6.52 | < 5.52 | < 5.52
9 | Cc1c(-c2cccc(S(=O)(=O)N(C)C)c2)c2ccc(C(=O)O)cc2n1C/C(F)=C/CN [Compound 9, (Z)-1-(4-amino-2-fluorobut-2-en-1-yl)-3-(3-(N,N-dimethylsulfamoyl)phenyl)-2-methyl-1H-indole-6-carboxylic acid] | < 6.52 | > 6.52 | < 5.52 | < 5.52
10 | Cc1c(-c2cccc(S(=O)(=O)N(C)C)c2)c2ccc(C(=O)N(C)C)cc2n1C/C(F)=C/CN [Compound 10, (Z)-1-(4-amino-2-fluorobut-2-en-1-yl)-3-(3-(N,N-dimethylsulfamoyl)phenyl)-N,N,2-trimethyl-1H-indole-6-carboxamide] | < 6.52 | > 6.52 | < 5.52 | < 5.52
11 | CCS(=O)(=O)c1cccc(-c2c(C(C)C)n(C/C(F)=C/CN)c3ccc(C)nc23)c1 [Compound 113, (Z)-4-(3-(3-(ethylsulfonyl)phenyl)-2-isopropyl-5-methyl-1H-pyrrolo[3,2-b]pyridin-1-yl)-3-fluorobut-2-en-1-amine Dihydrochloride] | < 6.52 | > 6.52 | – | –
12 | CCS(=O)(=O)c1cccc(-c2c(C)n(C/C(F)=C/CN)c3ccc(C)nc23)c1 [Compound 114, (Z)-4-(3-(3-(ethylsulfonyl)phenyl)-2,5-dimethyl-1H-pyrrolo[3,2-b]pyridin-1-yl)-3-fluorobut-2-en-1-amine Dihydrochloride] | < 6.52 | > 6.52 | – | –
13 | Cc1c(-c2cccc(S(C)(=O)=O)c2)c2nc(CF)ccc2n1C/C(F)=C/CN [Compound 115, (Z)-3-fluoro-4-(5-(fluoromethyl)-2-methyl-3-(3-(methylsulfonyl)phenyl)-1H-pyrrolo[3,2-b]pyridin-1-yl)but-2-en-1-amine Dihydrochloride] | < 6.52 | > 6.52 | – | –
14 | Cc1c(-c2cccc(S(C)(=O)=O)c2)c2nc(C(C)(C)O)ccc2n1C/C(F)=C/CN [Compound 116, (Z)-2-(1-(4-amino-2-fluorobut-2-en-1-yl)-2-methyl-3-(3-(methylsulfonyl)phenyl)-1H-pyrrolo[3,2-b]pyridin-5-yl)propan-2-ol Dihydrochloride] | < 6.52 | > 6.52 | – | –
15 | Cc1c(-c2cccc(S(=O)(=O)C(C)C)c2)c2nc(C(C)(C)O)ccc2n1C/C(F)=C/CN [Compound 117, (Z)-2-(1-(4-amino-2-fluorobut-2-en-1-yl)-3-(3-(isopropylsulfonyl)phenyl)-2-methyl-1H-pyrrolo[3,2-b]pyridin-5-yl)propan-2-ol Dihydrochloride] | < 6.52 | > 6.52 | – | –
